From ChEMBL document CHEMBL1201862, “PubChem BioAssay data set” (2004) come the findings set out here.

SMILES strings stand for the structures.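 Cultured in 96-well plates, cells were exposed to test compound for 48 hours across five concentrations. GI50: concentration for 50% inhibition of growth.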 Active and inactive are the calls of the source. No stated cut-off is given here; in the data, active = GI50 up to about 1.1 µM and inactive = higher.

Experiment in all cases: NCI anticancer screen, dose series, 48 h
For assay [1], the system named is HCT-15.
The test system of assay [2] is HL-60.
Assay [3] deals with HT-29.
Assay [4] deals with NCI-H23.
For assay [5], the system named is NCI-H522.
The test system of assay [6] is OVCAR-4.
Assay [7] concerns SF-268.
Assay [8] relates to SF-295.
For assay [9], the system named is SK-MEL-28.
In assay [10] the test system is SK-MEL-2.
Assay [11] has as its system SNB-19.
For assay [12], the system named is SNB-75.
For assay [13], the system named is SW-620.
The subject of assay [14] is TK-10.
The test system of assay [15] is UACC-257.
Assay [16] deals with UACC-62.
The test system of assay [17] is HOP-62.
Assay [18] relates to RPMI-8226.
The test system of assay [19] is RXF 393.

On to `COC1=CC23CCCN2CCc2cc4c(cc2C3C1O)OCO4` (stereo not given), for which the GI50 in assay [1] was 41.8 µM; in assay [2], 25.8 µM (inactive); in assay [3], 39.4 µM (inactive); in [4], 62.8 µM (inactive); in assay [5], 29.2 µM (inactive); in assay [6], 44.6 µM (inactive). The GI50 in [7] was 50.2 µM (inactive); in assay [8] it was 36.1 µM (inactive); in assay [9], > 100 µM (inactive); in assay [10], 54.2 µM (inactive); in assay [11], 20.3 µM (inactive); in assay [12], 78.2 µM (inactive). Further, the GI50 in [13] was 66.1 µM (inactive); in assay [14], > 100 µM (inactive); in [15], > 100 µM (inactive); in assay [16], > 100 µM (inactive).
Consider `O=C1CCC(=O)C1=NNc1cc(Cl)cc(Cl)c1`, for which the GI50 in [1] is 55.8 µM; in assay [2], 63.5 µM (inactive); in [17], > 100 µM (inactive); in assay [3], > 100 µM (inactive); in assay [4], > 100 µM (inactive); in [6], > 100 µM (inactive). Moreover, the GI50 is 32.7 µM (inactive) in assay [18]; > 100 µM (inactive) in [19]; > 100 µM (inactive) in assay [7]; > 100 µM (inactive) in assay [8]; > 100 µM (inactive) in assay [9]; > 100 µM (inactive) in assay [10]. Moreover, the GI50 in [11], in [12], in assay [13], in assay [14], in assay [15] and in [16] was > 100 µM (inactive) in each case.
As to `CCOC(=O)Nc1nn[nH]c1Cl`, the GI50 in [1] is above 100 µM; in [17], > 100 µM (inactive); in assay [3] it was > 100 µM (inactive); in [4], > 100 µM (inactive); in [5], > 100 µM (inactive); in assay [6] it was > 100 µM (inactive). Besides, the GI50 in assay [18], in [19], in [7], in [9], in assay [10] and in [12] was > 100 µM (inactive) in each case. For the same compound, the GI50 in [13], in [14], in assay [15] and in assay [16] was > 100 µM (inactive) in each case.
As to `Cc1ccccc1NC(=O)C(=O)Cc1cnc2ccccc2n1`, the GI50 was above 100 µM in [1]; > 100 µM (inactive) in assay [2]; > 100 µM (inactive) in assay [3]; > 100 µM (inactive) in assay [4]; > 100 µM (inactive) in assay [5]; > 100 µM (inactive) in assay [6]. In addition, the GI50 in assay [18], in assay [7], in assay [8], in assay [9], in assay [10] and in assay [11] was > 100 µM (inactive) throughout. Also, the GI50 in assay [13], in assay [14], in assay [15] and in [16] was > 100 µM (inactive) throughout.
As for `COc1nc(NC2OC(COC(C)=O)C(OC(C)=O)C(OC(C)=O)C2OC(C)=O)c2c(OC(C)=O)c(C)c(=O)oc2n1` (stereo not given), the GI50 in assay [1] was above 100 µM; in assay [2] it was > 100 µM (inactive); in [17] it was > 100 µM (inactive); in assay [3], > 100 µM (inactive); in [4] it was > 100 µM (inactive); in assay [6], > 100 µM (inactive). For the same compound, the GI50 in [18], in [19], in [8], in assay [10], in [11] and in assay [12] was > 100 µM (inactive) each time. The GI50 in assay [13], in [14], in assay [15] and in [16] was > 100 µM (inactive) in each case.
Regarding `CCOC(=O)C12CCCC1(O)N(NC(=O)c1ccccc1)C(C)=C2C(=O)OC` (stereo not given), the GI50 was above 100 µM in assay [1]; > 100 µM (inactive) in [2]; > 100 µM (inactive) in [17]; > 100 µM (inactive) in assay [3]; > 100 µM (inactive) in [4]; > 100 µM (inactive) in assay [5]. For the same compound, the GI50 in [6], in assay [18], in assay [7], in assay [8], in [10] and in assay [11] was > 100 µM (inactive) each time. Moreover, the GI50 in assay [13], in assay [14], in [15] and in assay [16] was > 100 µM (inactive) throughout.
Regarding `O=C(Cn1c2ccc(Br)cc2c2nc3ccccc3nc21)NC1CCCCC1`, the GI50 in assay [1] was above 100 µM; in [17], > 100 µM (inactive); in assay [3] it was > 100 µM (inactive); in assay [4] it was > 100 µM (inactive); in [5] it was > 100 µM (inactive); in assay [6] it was > 100 µM (inactive). For the same compound, the GI50 was > 100 µM (inactive) in assay [18]; > 100 µM (inactive) in assay [19]; > 100 µM (inactive) in assay [7]; > 100 µM (inactive) in assay [8]; 81.1 µM (inactive) in assay [9]; > 100 µM (inactive) in assay [10]. Besides, the GI50 is > 100 µM (inactive) in [11]; 36.1 µM (inactive) in assay [12]; > 100 µM (inactive) in assay [13]; > 100 µM (inactive) in assay [14]; > 100 µM (inactive) in [15]; > 100 µM (inactive) in [16].
Regarding `Cc1cc(C)nc(NS(=O)(=O)c2ccc(NC(=O)c3ccc(Cl)c4c(Nc5ccc(S(=O)(=O)Nc6nc(C)cc(C)n6)cc5)c5ccccc5nc34)cc2)n1`, the GI50 in assay [1] is 26.9 µM; in [2] it was 3.15 µM (inactive); in assay [17], 6.44 µM (inactive); in assay [3] it was 31.7 µM (inactive); in [4], 3.75 µM (inactive); in [6], 11 µM (inactive). Also, the GI50 was 3.72 µM (inactive) in assay [18]; 2.16 µM (inactive) in [19]; 4.41 µM (inactive) in assay [7]; 25.4 µM (inactive) in assay [8]; 4.28 µM (inactive) in assay [9]; 13.7 µM (inactive) in assay [10]. Also, the GI50 in assay [11] is 4.89 µM (inactive); in assay [12], 21.3 µM (inactive); in [13], 18.2 µM (inactive); in assay [14] it was 33.4 µM (inactive); in assay [15] it was 27.7 µM (inactive); in [16], 2.04 µM (inactive).
Take `O=c1[nH]nc(Cc2ccccc2)n1/N=C/c1cccs1`: the GI50 is above 100 µM in assay [1]; > 100 µM (inactive) in assay [17]; > 100 µM (inactive) in assay [3]; > 100 µM (inactive) in assay [4]; > 100 µM (inactive) in [6]; 47.1 µM (inactive) in assay [18]. For the same compound, the GI50 in assay [19] is 35.2 µM (inactive); in assay [7], > 100 µM (inactive); in assay [8] it was > 100 µM (inactive); in assay [9] it was > 100 µM (inactive); in assay [10], > 100 µM (inactive); in assay [11], > 100 µM (inactive). Moreover, the GI50 in assay [12] is > 100 µM (inactive); in assay [13], > 100 µM (inactive); in [15], > 100 µM (inactive); in [16], 36 µM (inactive).
